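In this assay, cells in 96-well plates receive the compound at five concentrations for 48 hours. Endpoints are linearly interpolated between the surrounding concentrations. At the GI50, growth is halved. TGI: concentration producing complete growth inhibition.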
What was measured:
Assay in all cases: NCI-60 cell line screen, 48 h
SK-MEL-2 melanoma = test system: SK-MEL-2 melanoma
SN12C renal = test system: SN12C renal
OVCAR-5 ovarian = test system: OVCAR-5 ovarian
SF-268 CNS = test system: SF-268 CNS
K-562 leukemia = test system: K-562 leukemia
MCF7 breast = test system: MCF7 breast
UACC-257 melanoma = test system: UACC-257 melanoma
NCI-H226 lung = test system: NCI-H226 lung
KM12 colon = test system: KM12 colon
RPMI-8226 leukemia = test system: RPMI-8226 leukemia

SMILES | GI50 (SK-MEL-2 melanoma) [µM] | TGI (SK-MEL-2 melanoma) [µM] | GI50 (SN12C renal) [µM] | TGI (SN12C renal) [µM] | GI50 (OVCAR-5 ovarian) [µM] | TGI (OVCAR-5 ovarian) [µM] | GI50 (SF-268 CNS) [µM] | TGI (SF-268 CNS) [µM] | GI50 (K-562 leukemia) [µM] | TGI (K-562 leukemia) [µM] | GI50 (MCF7 breast) [µM] | TGI (MCF7 breast) [µM] | GI50 (UACC-257 melanoma) [µM] | TGI (UACC-257 melanoma) [µM] | GI50 (NCI-H226 lung) [µM] | TGI (NCI-H226 lung) [µM] | GI50 (KM12 colon) [µM] | TGI (KM12 colon) [µM] | GI50 (RPMI-8226 leukemia) [µM] | TGI (RPMI-8226 leukemia) [µM]
Clc1nc(Cl)c2ncn(-c3ccccc3)c2n1 | 13.8 | 27.1 | 7.45 | 21.5 | 15 | 30.4 | 3.26 | 15.4 | 2.61 | 7.05 | 4.09 | 24.3 | 6.86 | 20.2 | 12.1 | 28.5 | 12.8 | 25.8 | – | –
N#CC1=C(N)N=C(N2CCOCC2)C(C#N)C12Nc1ccccc1S2 (centres undefined) | 35.2 | 95 | 27.5 | 82.9 | 45.1 | > 100 | 8.05 | 27.5 | 26.7 | > 100 | – | – | 28 | 89.1 | 27.8 | > 100 | 15 | 33.6 | 16 | 88.5
Cc1[nH]c(=O)n2c(C)nnc2c1C(=O)O | – | > 100 | – | > 100 | – | > 100 | – | > 100 | – | > 100 | – | – | – | – | – | > 100 | – | > 100 | – | > 100
CCCCCc1cc(/C=C2/N=C(c3ccc[nH]3)C=C2OC)[nH]c1C | – | – | – | 0.844 | – | 1.26 | – | 1.13 | – | 0.259 | – | 0.0988 | – | 0.855 | – | 1.79 | – | 0.364 | – | –
CC1=C2CC[C@@]3(C)C(=CCC3O)C2(C)CCC1=O (some centres undefined) | – | – | – | > 100 | – | > 100 | – | > 100 | – | – | – | – | – | > 100 | – | > 100 | – | > 100 | – | > 100
c1cc2c(cc1C1OCC3C(c4ccc5c(c4)OCO5)OCC13)OCO2 (centres undefined) | – | > 100 | – | > 100 | – | > 100 | – | > 100 | – | > 100 | – | – | – | > 100 | – | > 100 | – | > 100 | – | –
CC[O-].CC[O-].O=C1C=C([O-])C(=O)c2ccccc21.O=C1C=C([O-])C(=O)c2ccccc21.[Ti+4] | 9.89 | > 100 | > 100 | > 100 | > 100 | > 100 | > 100 | > 100 | 69.6 | > 100 | – | – | > 27.9 | > 100 | > 82.8 | > 100 | > 90.8 | > 100 | 8.08 | > 100
c1ccc2cc(C3NCCc4[nH]cnc43)ccc2c1 (centres undefined) | – | > 100 | – | > 100 | – | > 100 | – | > 100 | – | > 100 | – | – | – | 70.9 | – | > 100 | – | 56.2 | – | > 100
CC(=O)OC(C(=O)[O][Ge]([CH3])([CH3])[CH3])c1ccccc1 (centres undefined) | – | – | > 100 | > 100 | > 100 | > 100 | > 100 | > 100 | > 100 | > 100 | – | – | > 100 | > 100 | > 100 | > 100 | > 100 | > 100 | – | –
CCOC(=O)CCc1c(C)c2c(OC)cc(OC)cc2oc1=O | – | > 100 | – | > 100 | – | > 100 | – | > 100 | – | – | – | – | – | > 100 | – | > 100 | – | > 100 | – | –
C/C=C1\Oc2ccc(OC)cc2S1(=O)=O | – | > 100 | – | > 100 | – | > 100 | – | > 100 | – | > 100 | – | – | – | > 100 | – | > 100 | – | > 100 | – | > 100
CCCCCOC(=O)Nc1nc(=O)n(C2OC(C)C(O)C2O)cc1F (centres undefined) | > 10000 | > 10000 | > 10000 | > 10000 | > 10000 | > 10000 | > 10000 | > 10000 | – | – | – | – | > 10000 | > 10000 | – | – | > 10000 | > 10000 | – | –
O=C(c1ccccc1)n1cc(/C=C/[N+](=O)[O-])c2ccccc21 | – | 35.6 | – | > 100 | – | > 100 | – | 52.3 | – | 47.7 | – | – | – | 47.3 | – | – | – | 32.5 | – | 39.9
O=c1cccccc1[O-].O=c1cccccc1[O-].O=c1cccccc1[O-].[Nd+3] | – | 97.3 | 35.6 | > 100 | – | > 100 | – | – | – | > 100 | – | – | – | > 100 | – | > 100 | – | > 100 | – | > 100
COC(=O)c1cc(O)ccc1O | – | > 100 | – | > 100 | – | > 100 | – | > 100 | – | > 100 | – | – | – | > 100 | – | > 100 | – | > 100 | – | > 100
OC1CC(O)O[C@H](c2ccccc2)C1 (some centres undefined) | – | – | – | > 100 | – | > 100 | – | > 100 | – | > 100 | – | – | – | > 100 | – | > 100 | – | > 100 | – | > 100
Cc1ccccc1N(CCC#N)C1=NN(C(=O)CC(=O)Nc2ccc(Cl)cc2)C(c2ccccc2)C1 (centres undefined) | – | > 100 | – | > 100 | – | > 100 | – | > 100 | – | > 100 | – | – | – | > 100 | – | > 100 | – | > 100 | – | > 100

— PubChem BioAssay (NCI)
